The assay has as its system HIV-1 Strain IIIB. Put plainly: Double combination dose response matrices in MT2-cells infected with HIV-1 Strain IIIB (MacSynergy II / Greco analysis). It counts as cell-based. The following applies: Greco model estimate; for EC50: MT2-cells, HIV-1 IIIB, medium with 10% fetal bovine serum plus α1 acid glycoprotein (1 mg/ml) and albumin (40 mg/ml). The protocol: Triplicate in vitro dose response matrices were prepared using MT2-cells infected with HIV-1 Strain IIIB. In order to account for the effects of protein binding, tissue culture medium with 10% fetal bovine serum was supplemented with the human serum proteins α1, acid glycoprotein (1 mg/ml) and albumin (40 mg/ml). The 3-D drug interaction surface for 1592U89 and 141W94 was constructed using the program MacSynergy II. As analyzed relative to a Bliss Independence null reference model, this combination was synergistic with volumes of synergy exceeding 100 (99% confidence). Analysis of the data set with a fully parametric form of an equation for the quantitation of drug interaction developed by Greco et al. also indicated synergy. The parameters, with 95% confidence intervals are shown below: EC50 is the half maximal response concentration. “m” is the slope parameter. Alpha is the synergy parameter.

The structures appear in SMILES notation. Like-named read-outs stand apart in the source and are kept apart here.

As to `Nc1nc(NC2CC2)c2ncn([C@H]3C=C[C@@H](CO)C3)c2n1` (relative stereo) [1592U89, (1S,4R)-cis-4-[2-amino-6-(cyclopropylamino)-9H-purin-9-yl]-2-cyclopentene-1-methanol], the EC50 (read-out: EC50,1592u) is 626 nM. In addition, the “m1592u (slope parameter)” value (same matrix) is 1.60.

Turning to `CC(C)CN(C[C@@H](O)[C@H](Cc1ccccc1)NC(=O)O[C@H]1CCOC1)S(=O)(=O)c1ccc(N)cc1` (relative stereo) [141W94, 3S-[3R*(1R*,2S*)]-[3-[[(4-aminophenyl)sulphonyl](2-methylpropyl)-amino]-2-hydroxy-1-phenylmethyl)propyl]carbamic acid, tetrahydro-3-furanyl ester], the concentration for a half-maximal effect (EC50) (Human immunodeficiency virus 1, read-out: EC50,141w) is 394 nM. The “m141w (slope parameter)” value (same matrix) is reported as 2.20.

One may read the EC50 as the midpoint of the concentration-response curve.

The record behind these values is patent US6486136B1, “Combinations comprising VX478, zidovudine and/or 1592U89 for use in the treatment of HIV” (SmithKline Beecham Corporation, priority 1996, dated 2002).
